Experimental data as given in patent US10806794B2, “Protease inhibitors having enhanced features” (priority 2008, dated 2020).
Read-outs that look alike come from different tables or passages of the source.

How the values were obtained:
[1] = system: human liver microsomal proteins; assay: Microsomal protein binding by equilibrium dialysis; assay type: in vitro ADME; details: human liver microsomes, 3 μM, fraction unbound
Experimental: PEGylated protease inhibitors were evaluated for their propensity to be bound by proteins in normal human plasma or in human liver microsome preparations using equilibrium dialysis analysis. For microsomal protein binding, test compound (final concentration=3 μM) was diluted into either buffer alone or buffer containing human liver microsomes. The protein-free and microsome-containing solutions were then added to either side of an equilibrium dialysis system and allowed to reach equilibrium at 37° C. The concentration of compound on both sides of the membrane at equilibrium was quantified by LC-MS/MS, and the fraction of compound that remains unbound (Fu) is calculated.

[2] = biological target: recombinant HIV-1 protease (Human immunodeficiency virus type 1 group M subtype B (isolate HXB2) (HIV-1), UniProt P04585); assay: Enzyme inhibition of purified HIV-1 protease (SensoLyte 520 HIV-Protease Assay Kit); assay type: biochemical; details: read-out: IC50 ± SD
Experimental: Protease inhibitors (PI) are used to treat HIV infection by preventing viral assembly and maturation through the inhibition of HIV-1 protease activity. Biochemical assays were performed to evaluate the potential of PEG-PI conjugates to inhibit HIV-1 protease activity, relative to their respective PI parent molecules. Activity assays were performed at using the SensoLyte 520 HIV-Protease Assay Kit (Anaspec Inc., San Jose, Calif.) and recombinant HIV-1 protease. Protease activity was monitored by the formation of a fluorescent reporter product generated during HIV-1 protease-mediated digestion of a quenched, fluorimetric substrate containing the p17/p24 Pr^gag cleavage site.

human plasma proteins = assay: Plasma protein binding by equilibrium dialysis, human plasma; assay type: in vitro ADME; details: human plasma, 5 μM, fraction unbound
Experimental: In assays to estimate binding of test compounds to plasma proteins, test compound solutions (5 μM) are prepared in buffer and species-specific plasma (final DMSO concentration 0.5%). The plasma-containing solution is added to one side of the membrane of an equilibrium dialysis system, and the plasma-free is added to the other side. Dialysis was allowed to reach equilibrium by incubation for two hours at 37° C. The concentration of compound on both sides of the membrane was measured using LC-MS/MS.

CEM-SS cells = system: CEM-SS cells
Experimental: (§1) To evaluate whether conjugated protease inhibitors retain the ability to protect against HIV-1 infection, CEM-SS cells infected with the RF strain of HIV-1 were treated with test compounds for six days, and then cell viability was monitored using the tetrazolium dye XTT. […] A value for Therapeutic Index (TI) was calculated as TC50/EC50.

HIV-1RF = assay: Anti-HIV cytoprotection in CEM-SS cells infected with HIV-1RF (XTT); assay type: cell-based; details: six days, XTT; read-out: CEM-SS/HIV-1RF EC50 ± SD
Experimental: as §1

PBMCs [3] = assay: PBMC cytotoxicity (XTT); assay type: cell-based, human; details: 7 days
Experimental: Mononuclear cells were isolated from fresh human peripheral blood cells by Ficoll-Hypaque density gradient by centrifugation at 600 g for 30 minutes. Banded peripheral blood mononuclear cells (PBMCs) were aspirated from the resulting interface and washed with phosphate buffered saline by low speed centrifugation. Cell viability was evaluated by Trypan Blue dye exclusion. […] Plates were incubated at 37° C., 5% CO2 for 7 days prior to cytotoxicity evaluation. XTT measurement for cytotoxicity.

PBMCs [4] = assay: PBMC macromolecule synthesis (tritiated precursor incorporation); assay type: cell-based, human; details: for Thymidine Incorporation (PBMC) TC50: DNA synthesis; for Uridine Incorporation (PBMC) TC50: RNA synthesis; for Leucine Incorporation (PBMC) TC50: protein synthesis
Experimental: Cellular macromolecule synthesis was evaluated using tritiated precursor incorporation assays. PBMCs (5×10^4 cells/well) were cultured in the presence or absence of test compound for 7 days at 37 C, 5% CO2 in a 96-well microtiter plate. On day 6 of the incubation, 1 uCi of [methyl-3H]-thymidine for DNA synthesis, [5-3H]-uridine for RNA synthesis, or [3,4,5-3H]-leucine for protein synthesis was added to compound-treated cells, and the plate was further incubated for 16 hours. The cells were transferred to a glass fiber filtermat using an Inotech cell harvester. The filtermats were washed with distilled water then sealed in a bag with scintillation fluid. Incorporated radioactivity was measured using a Wallac scintillation counter.

CYP3A4 = CYP3A4 (Homo sapiens (Human), UniProt P08684); assay: CYP450 inhibition in human liver microsomes: CYP3A4;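 further: incubation at 37 °C started by adding 1 mM NADPH, with formation of the probe metabolite measured via LC-MS/MS or fluorescent detection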
Chain of CYP3A4 (P08684 whole entry): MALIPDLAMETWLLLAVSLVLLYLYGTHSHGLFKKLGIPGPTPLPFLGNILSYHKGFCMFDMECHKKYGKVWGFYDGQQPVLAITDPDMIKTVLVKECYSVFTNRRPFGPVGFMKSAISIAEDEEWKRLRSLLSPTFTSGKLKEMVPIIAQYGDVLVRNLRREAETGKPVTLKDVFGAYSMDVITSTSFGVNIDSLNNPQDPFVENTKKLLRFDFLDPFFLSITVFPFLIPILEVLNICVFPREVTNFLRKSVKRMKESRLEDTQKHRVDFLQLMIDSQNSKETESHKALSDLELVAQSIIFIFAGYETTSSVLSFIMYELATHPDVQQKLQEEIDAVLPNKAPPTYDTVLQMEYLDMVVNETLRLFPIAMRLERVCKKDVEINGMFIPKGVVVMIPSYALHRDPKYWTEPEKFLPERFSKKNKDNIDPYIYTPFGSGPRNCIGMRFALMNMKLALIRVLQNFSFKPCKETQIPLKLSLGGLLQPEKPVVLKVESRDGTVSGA

human hepatocytes = assay: Metabolic stability in cryopreserved human hepatocytes; details: human hepatocytes, 3 uM, incubated up to one hour
Experimental: Metabolism of PI conjugates was investigated by monitoring the levels of unmetabolized parent compound following incubation with cryopreserved human or monkey hepatocytes. The use of whole hepatocytes rather than microsomes requires that the drugs cross the cell membrane to interact with intracellularly-localized metabolic enzymes, and thus provides the most relevant in vitro system for understanding overall metabolic stability of these compounds.
Test compounds (0.1 μM or 3 μM, as indicated) are incubated with cryopreserved human hepatocytes at a cell density of 0.5×10^6 viable cells/mL. […] Duplicate samples (50 μL) are removed from the incubation mixture at various timepoints up to four hours (for 0.1 μM test compound concentration), or one or two hours (for 3 μM test compound concentration), and the reaction is quenched by the addition of methanol containing internal standard (100 μL). The samples are centrifuged (2500 rpm at 4° C. for 20 min), and the supernatants at each time point pooled for cassette analysis by LC-MS/MS.

Caco-2 cells = assay: Bi-directional permeability in Caco-2 monolayers; details: for Efflux ratio (B→A/A→B): Caco-2 monolayers; for A→B, ×10^−6: human, Caco-2
Experimental: Absorption properties of various compounds were measured using bi-directional permeability assays in Caco-2 cells. […] The efflux ratio is calculated as the ratio of the Papp(B→A)/Papp(A→B).

[5] = read-out: CYP3A4 IC50 Midazolam, probe substrate midazolam
[6] = read-out: CYP3A4 IC50 Testosterone, probe substrate testosterone

Compound	Microsomal Protein Binding Fu ± SD [1]	IC50 [2] [nM]	Plasma Protein Binding Fu ± SD (human plasma proteins)	CEM-SS TC50 ± SD (CEM-SS cells; absence of viral infection) [nM]	EC50 (HIV-1RF) [nM]	XTT (PBMC) TC50 (PBMCs [3]) [%]	Thymidine Incorporation (PBMC) TC50 (PBMCs [4]) [%]	Uridine Incorporation (PBMC) TC50 (PBMCs [4]) [%]	Leucine Incorporation (PBMC) TC50 (PBMCs [4]) [%]	IC50 (CYP3A4; [5]) [nM]	IC50 (CYP3A4; [6]) [nM]	CEM-SS TC50 ± SD (CEM-SS cells) [nM]	CLint ± SEM (human hepatocytes) [μL/min/10^6 cells]	Efflux ratio (B→A/A→B) (Caco-2 cells)	A→B, ×10^−6 (Caco-2 cells) [cm/s]
CCC(C1=C(O)CC(CCCNC(=O)OC)(CCc2ccccc2)OC1=O)c1cccc(NS(=O)(=O)c2ccc(C(F)(F)F)cn2)c1 (mixture of isomers) [mPEG0-OCO—NH-Tipranavir]	0.887 ± 0.0749	0.292	0.0105 ± 0.00848	54300	290	–	–	–	–	–	–	–	–	–	–
CCC(C1=C(O)CC(CCCNC(=O)OCCOC)(CCc2ccccc2)OC1=O)c1cccc(NS(=O)(=O)c2ccc(C(F)(F)F)cn2)c1 (mixture of isomers) [mPEG1-OCO—NH-Tipranavir]	0.85 ± 0.184	0.188	0.0145 ± 0.000403	49500	120	–	–	–	–	–	–	–	–	–	–
CCC(C1=C(O)CC(CCCNC(=O)OCCOCCOCCOC)(CCc2ccccc2)OC1=O)c1cccc(NS(=O)(=O)c2ccc(C(F)(F)F)cn2)c1 (mixture of isomers) [mPEG3-OCO—NH-Tipranavir]	0.816 ± 0.0104	0.617	0.0292 ± 0.000428	67600	870	–	–	–	–	–	–	–	–	–	–
CCC(C1=C(O)CC(CCCNC(=O)OCCOCCOCCOCCOCCOC)(CCc2ccccc2)OC1=O)c1cccc(NS(=O)(=O)c2ccc(C(F)(F)F)cn2)c1 (mixture of isomers) [mPEG5-OCO—NH-Tipranavir]	highly unbound	0.462	0.0304 ± 0.000274	86100	1060	–	–	–	–	–	–	–	–	–	–
C[S+](C)[O-] [DMSO, reference compound]	–	–	–	–	–	>2.0	>2.0	0.06	0.19	–	–	–	–	–	–
COCCOCCOCCOCCOCCOC(=O)N[C@@H](C(=O)NC(Cc1ccccc1)[C@@H](O)CN(Cc1ccc(-c2ccccn2)cc1)NC(=O)[C@H](NC(=O)OCCOCCOCCOCCOCCOC)C(C)(C)C)C(C)(C)C (some centres unmarked) [di-mPEG5-Atazanavir]	highly unbound	17.3	0.537 ± 0.0412	–	1110	–	–	–	–	> 50000	> 50000	>200000	0.824 ± 0.950	>10.8	0.06
COCCOCCOCCOCCOCCOCCOC(=O)N[C@@H](C(=O)NC(Cc1ccccc1)[C@@H](O)CN(Cc1ccc(-c2ccccn2)cc1)NC(=O)[C@H](NC(=O)OCCOCCOCCOCCOCCOCCOC)C(C)(C)C)C(C)(C)C (some centres unmarked) [di-mPEG6-Atazanavir]	highly unbound	15.6	0.868 ± 0.0163	–	2540	–	–	–	–	–	–	158600	–	–	–
COCCOCCOCCOCCOCCOCCOCCOC(=O)N[C@@H](C(=O)NC(Cc1ccccc1)[C@@H](O)CN(Cc1ccc(-c2ccccn2)cc1)NC(=O)[C@H](NC(=O)OCCOCCOCCOCCOCCOCCOCCOC)C(C)(C)C)C(C)(C)C (some centres unmarked) [di-mPEG7-Atazanavir]	highly unbound	10.9	highly unbound	–	8350	–	–	–	–	> 50000	> 50000	>200000	–	>3.6	0.06
CCCC1(CCc2ccccc2)CC(O)=C(C(CC)c2cccc(N(CCOCCOCCOC)S(=O)(=O)c3ccc(C(F)(F)F)cn3)c2)C(=O)O1 (centres unmarked) [mPEG3-amide-Tipranavir]	0.73 ± 0.0153	–	0.014 ± 0.00166	–	80	–	–	–	–	2500	~2100	1300	1.66 ± 1.24	–	–
CCCC1(CCc2ccccc2)CC(O)=C(C(CC)c2cccc(N(CCOCCOCCOCCOCCOC)S(=O)(=O)c3ccc(C(F)(F)F)cn3)c2)C(=O)O1 (centres unmarked) [mPEG5-amide-Tipranavir]	highly unbound	–	0.0308 ± 0.00399	–	> 200000	–	–	–	–	1700	2800	12800	3.62 ± 0.527	–	–
CCC[C@@]1(CCc2ccccc2)CC(O)=C([C@H](CC)c2cccc(N(CCOCCOCCOCCOCCOCCOCCOC)S(=O)(=O)c3ccc(C(F)(F)F)cn3)c2)C(=O)O1 [mPEG7-amide-Tipranavir]	highly unbound	12.2	0.029 ± 0.00436	–	> 200000	–	–	–	–	2600	~4000	14500	0.162 ± 0.343	–	–
Triton X-100 [reference compound]	–	–	–	–	–	0.003	0.002	0.0009	0.0006	–	–	–	–	–	–
